The record followed here is patent publication US12180466B2, “Plant tissue collection, RNA extraction and genetic analysis” (WINFIELD SOLUTIONS, LLC, priority 2018, dated 2024).

In assay [1] the test system is maize seeds. The assay is described as follows: Whole-genome RNA sequencing of tissue from PGR-treated germinating maize seeds/seedlings, gene expression relative to control. Format: in vivo. The note with it: radicle, 144-hour timepoint. On the procedure: This study applied 5 different PGRs to separate treatment groups each comprised of 30 maize seeds. A negative control group of 30 maize seeds was exposed to a control solution devoid of any PGRs. The ability to germinate the seeds and harvest the desired tissues from the seeds and nascent seedlings at 5 timepoints was evaluated, and the total RNA extracted, sequenced and analyzed. […] Ten plates were prepared for each of the 6 groups evaluated (5 treatment groups+1 control group). Each test group included 5 subgroups, each subgroup corresponding to 1 of the 5 harvesting timepoints. Replicates of each subgroup were prepared, such that each of the 5 subgroups of seeds occupied two plates. Group 1 served as the untreated negative control group. Group 2 was treated with a first PGR composition (“PGR 1”) that includes active components containing 0.09 wt % cytokinin (kinetin), 0.03 wt % GA, and 0.045 wt % IBA. Group 3 was treated with kinetin. Group 4 was treated with GA. Group 5 was treated with IBA. […] Expression data for 39,460 different genes was obtained and analyzed to identify which genes were differentially expressed relative to control samples at the timepoints and tissue types sampled and in response to the different treatments applied to each test group.

Assay [2] relates to maize seeds. Put plainly: Germination of treated maize seeds and harvestability of tissue at timepoints (Maize Trial 1). The note with it: for non-harvestable seeds (did not germinate): 120-hour timepoint, subgroup 4, radicle and coleoptile. Format: in vivo. On the procedure: This study applied 5 different PGRs to separate treatment groups each comprised of 30 maize seeds. A negative control group of 30 maize seeds was exposed to a control solution devoid of any PGRs. The ability to germinate the seeds and harvest the desired tissues from the seeds and nascent seedlings at 5 timepoints was evaluated, and the total RNA extracted, sequenced and analyzed. […] Ten plates were prepared for each of the 6 groups evaluated (5 treatment groups+1 control group). Each test group included 5 subgroups, each subgroup corresponding to 1 of the 5 harvesting timepoints. Replicates of each subgroup were prepared, such that each of the 5 subgroups of seeds occupied two plates. Group 1 served as the untreated negative control group. Group 2 was treated with a first PGR composition (“PGR 1”) that includes active components containing 0.09 wt % cytokinin (kinetin), 0.03 wt % GA, and 0.045 wt % IBA. Group 3 was treated with kinetin. Group 4 was treated with GA. Group 5 was treated with IBA. Group 6 was treated with a second PGR composition (“PGR 2”) that includes active components containing 0.11 wt % CPPA and 0.01 wt % cytokinin (kinetin). Stock solutions of the treatments were prepared, each including equal amounts of propylene glycol, which was used to dissolve the kinetin. The amount of each treatment substance applied per seed varied between, but not within, the treatment groups. As shown below in Table 1, the control group was untreated. Each seed within group 2 was treated with 1.2 μL of the PGR 1. Each seed within group 3 was treated with 1.14 μg of kinetin. Each seed within group 4 was treated with 0.572 μg of GA. Each seed within group 5 was treated with 0.381 μg of IBA. Each seed within group 6 was treated with 1.7 μL of PGR 2. The seeds in each group were incubated at 15.5° C. and harvested at 5 timepoints. The first subgroup within each group was harvested after 12 hours of incubation, the second subgroup after 24 hours, the third subgroup after 96 hours, the fourth subgroup after 120 hours, and the fifth subgroup after 144 hours. […]

On to `O=C(O)CCCc1c[nH]c2ccccc12` [IBA, indole-3-butyric acid], for which the “expression of gene coding for phosphopantothenate-cysteine ligase protein” value with maize seeds [1] is recorded as “increased expression”. Further, the “seeds that did not germinate” value in the assay on maize seeds [2] (144-hour timepoint, subgroup 5) is 1 seeds.
Take `c1coc(CNc2ncnc3[nH]cnc23)c1` [group 3, kinetin]: in the assay with maize seeds [2], the “non-harvestable seeds (did not germinate)” value was found to be 2 seeds.
On the same count and under the same terms, the value for `C=C1C[C@]23C[C@@]1(O)CC[C@H]2[C@@]12C=C[C@H](O)[C@@](C)(C(=O)O1)[C@H]2[C@@H]3C(=O)O` [group 4, gibberellic acid] was 1 seeds.
